The source of these data is US7566710B2, “Dual molecules containing a peroxide derivative, synthesis and therapeutic applications thereof” (Centre National de la Racherche Scientifique (C.N.R.S.), priority 2000, dated 2009).

For data set [1], the system named is P. falciparum FcB1-Colombia (chloroquine resistant strain). Nature of the data set: Anti-malarial activity on P. falciparum FcB1-Colombia strain, tritiated hypoxanthine incorporation. The format is cell-based, Plasmodium falciparum. How it is done:
The P. falciparum strains are cultured continuously according to Trager and Jensen's method 5, with the following modifications 6: the parasites are maintained in human red blood cells (O±), diluted to 1% haematocrit in RPMI 1640 medium supplemented with 25 mM Hepes+30 mM NaHCO3 and complemented with 5% AB+ human serum. The parasite populations are synchronised over a 4 hour period by flotation with a gelatine solution, followed by lysis with 5% D-sorbitol 7,8. […]. The anti-malarial activity tests are performed using Desjardins' radioactive micromethod 11. The tests are performed in triplicate, in 96-well microplates, the readings being at 1% haematocrit and 0.5-1% parasitaemia. For each test, the parasites are incubated with decreasing concentrations of drug for either 32 hours and 72 hours (4 wells contain chloroquine diphosphate as a reference). The first dilution of the drug is performed at 10 mg/ml in dimethylsulphoxide and the following dilutions are made with RPMI 1640. The parasite growth is measured with the incorporation of tritiated hypoxanthine compared to incorporation in the absence of drug (taken to be 100%). 12 and the IC50 values are determined graphically by plotting the percentage of inhibition as a function of the drug concentration.

Data set [2] relates to P. falciparum FcM29-Cameroon (highly chloroquine resistant strain). Nature of the data set: Anti-malarial activity on P. falciparum FcM29-Cameroon strain, tritiated hypoxanthine incorporation. The format is cell-based, Plasmodium falciparum. How it is done:
(§1) The parasite populations are synchronised over a 4 hour period by flotation with a gelatine solution, followed by lysis with 5% D-sorbitol 7,8. […] The anti-malarial activity tests are performed using Desjardins' radioactive micromethod 11. The tests are performed in triplicate, in 96-well microplates, the readings being at 1% haematocrit and 0.5-1% parasitaemia. For each test, the parasites are incubated with decreasing concentrations of drug for either 32 hours and 72 hours (4 wells contain chloroquine diphosphate as a reference). […] The parasite growth is measured with the incorporation of tritiated hypoxanthine compared to incorporation in the absence of drug (taken to be 100%). 12 and the IC50 values are determined graphically by plotting the percentage of inhibition as a function of the drug concentration.

The test system of data set [3] is P. falciparum Nigerian (chloroquine susceptible strain). Nature of the data set: Anti-malarial activity on P. falciparum Nigerian strain, tritiated hypoxanthine incorporation. Type of data set: cell-based, Plasmodium falciparum. How it is done: as §1
For data set [4], the system named is three Plasmodium falciparum strains. In words: Anti-malarial activity, summary over the Nigerian, FcB1 and FcM29 strains. Type of data set: cell-based. As to conditions: susceptible and resistant strains. The procedure: as §1
For data set [5], the system named is P. falciparum in culture. Nature of the data set: In vitro activity on P. falciparum in culture. Type of data set: cell-based. Particulars: Plasmodium falciparum, read-out: LC50.
Data set [6] deals with P. vinckei. Nature of the data set: 4 day test in mice infected with P. vinckei. Type of data set: in vivo. Particulars: intraperitoneal route, for 2 months.
The test system of data set [7] is E. coli GE864. In words: Mutagenicity, SOS response (DNA repair induction) in E. coli GE864. Particulars: E. coli GE864, 5, 10, 15 and 20 μM; control 3 μM mitomycin C. The format is cell-based.
A short description of data set [8]: Toxicity after administration to healthy mice. As to conditions: 100 mg/kg/day oral route, three consecutive days.
For data set [9], the system named is human Plasmodium falciparum isolates. In words: Activity on human Plasmodium falciparum isolates. The format is cell-based. The procedure: Trioxaquine-citrate 4, referred to as DU-1102, was tested on human Plasmodium falciparum isolates, some of which were chloroquine- and/or pyrimethamine-resistant.
Data set [10] relates to P. falciparum FcB1-Colombia (chloroquine resistant strain). As to conditions: read-out: IC50 for chloroquine, FcB1-Columbia strain, literature refs 9,10; cited from earlier work.
For data set [11], the system named is P. falciparum FcM29-Cameroon (highly chloroquine resistant strain). As to conditions: read-out: IC50 for chloroquine, literature refs 9,10; cited from earlier work.
The mark [12] stands for this setting: FcB1-Colombia (CQR), 72 hrs, read-out: IC50.
[13] abbreviates: Nigerian (CQS), 32 hrs, read-out: IC50.
Where [14] appears, read: FcB1-Colombia (CQR), 32 hrs, read-out: IC50.
[15] abbreviates: Nigerian (CQS), 72 hrs, read-out: IC50.

Molecules are shown by their SMILES. Where “and” joins values, the source holds several entries; their conditions need not be identical. Identical values can stand only once. Entries after “also recorded” stand apart in the source; their conditions may differ. Like-named read-outs stand apart in the source and are kept apart here. Where only a bound is given, the exact number is not on record here.

As to `Clc1ccc2c(NCCNC3CCC4(CC3)OOC3(c5ccccc5)CC(c5ccccc5)=CC3O4)ccnc2c1` (mixture of isomers) [Trioxaquine 3], the IC50 (commonly the concentration that inhibits the measured activity by half) in data set [1] (setting [12]) worked out at 9 nM; in data set [2] (FcM29-Cameroon (CQR+), 72 hrs, read-out: IC50), 18 nM; in data set [3] (Nigerian (CQS), 32 hrs), 1 ng/mL; in [3] (setting [13]), 1.8 nM. In addition, the “activity compared with chloroquine and the two fragments” value in [4] was “significantly greater than the activity of not only chloroquine, but also of each of the two fragments”.

Consider `Clc1ccc2c(NCCCCNC3CCC4(CC3)OOC3(c5ccccc5)CC(c5ccccc5)=CC3O4)ccnc2c1` (mixture of isomers) [Trioxaquine 9], for which, in [4], the “activity compared with chloroquine and the two fragments” value is on record as “significantly greater than the activity of not only chloroquine, but also of each of the two fragments”.

As to `CCN(CC)CCCC(C)Nc1ccnc2cc(Cl)ccc12` (centres unmarked) [Chloroquine diphosphate], the IC50 in data set [1] (Plasmodium falciparum, FCB1, 32 h) was 0.075 µg/mL; in [1] (Plasmodium falciparum, FCB1, 72 h), 0.06 µg/mL and 116 nM; in [2] (Plasmodium falciparum, 32 h), 0.1 µg/mL and 194 nM; in data set [2] (Plasmodium falciparum, 72 h) it was 0.08 µg/mL and 155 nM; in [3] (Plasmodium falciparum, 32 h), 0.045 µg/mL and 87 nM; in data set [3] (Plasmodium falciparum, 72 h), 0.01 µg/mL and 19 nM.

With `CC(C)C1=CC2OC3(CCC(NCCNc4ccnc5cc(Cl)ccc45)CC3)OOC2(C)CC1.O=C(O)CC(O)(CC(=O)O)C(=O)O.O=C(O)CC(O)(CC(=O)O)C(=O)O` (centres unmarked) [DU-1302], in data set [5], the median lethal concentration (LC50) (in general, the concentration lethal to half of the exposed cells or organisms) is 6 nM. For the same compound, the re-emergence result in [6] is “no observable re-emergence”. Further, the “mutagenicity, induction of DNA repair (SOS response)” value in data set [7] is reported as “Absence of mutagenicity”. In addition, the apparent toxicity entry in [8] was “does not show any apparent toxicity”.

For `NCCNc1ccnc2cc(Cl)ccc12` [Quinoline-amine1, 7-chloro-4-[N-(2-aminoethyl)amino]-quinoline], the 50% inhibitory concentration (IC50) in data set [1] (Plasmodium falciparum, FcB1-Colombia (CQR), 32 hrs, read-out: IC50) amounted to 0.035 µg/mL; in data set [1] (Plasmodium falciparum, FcB1-Colombia (CQR), 72 hrs, read-out: IC50), 0.02 µg/mL; in [3] (Plasmodium falciparum, Nigerian (CQS), 32 hrs, read-out: IC50), 33 ng/mL; in data set [3] (Plasmodium falciparum, Nigerian (CQS), 72 hrs, read-out: IC50), 7 ng/mL.

`O=C1CCC2(CC1)OOC1(c3ccccc3)CC(c3ccccc3)=CC1O2` (centres unmarked) [Trioxane-ketone 2]: the IC50 in data set [1] (setting [14]) was 113 nM; in [1] (setting [12]), 36 nM; in data set [3] (setting [13]), 149 nM; in data set [3] (setting [15]), 45 nM.

Consider `Clc1ccc2c(NCCNC3CCC4(CC3)OOC3(c5ccccc5)CC(c5ccccc5)=CC3O4)ccnc2c1.O=C(O)CC(O)(CC(=O)O)C(=O)O.O=C(O)CC(O)(CC(=O)O)C(=O)O` (centres unmarked) [Trioxaquine 4], for which the IC50 was determined as 0.035 µg/mL in data set [1] (FcB1-Colombia (CQR), 32 hrs); 37 nM in data set [1] (setting [14]); 0.02 µg/mL in data set [1] (FcB1-Colombia (CQR), 72 hrs); 21 nM in data set [1] (setting [12]); 33 ng/mL in data set [3] (Nigerian (CQS), 32 hrs); 35 nM in [3] (setting [13]). Further, the IC50 was 7 ng/mL in data set [3] (Nigerian (CQS), 72 hrs); 8 nM in [3] (setting [15]); 43 nM in data set [9] (read-out: IC50 geometric mean). Moreover, in data set [4], the “activity compared with chloroquine and the two fragments” value is recorded as “significantly greater than the activity of not only chloroquine, but also of each of the two fragments”. Moreover, the IC50 geometric mean in data set [9] was determined as 41 ng/mL. For the same compound, the “relation of activity to susceptibility or resistance to other anti-malarial agents (chloroquine, pyrimethamine)” value in data set [9] (listed as DU-1102) is reported as “independent of their susceptibility or their resistance; also recorded: no correlation”.

Consider `CCN(CC)CCCC(C)Nc1ccnc2cc(Cl)ccc12` (centres unmarked) [chloroquine], for which the IC50 in [10] and in data set [11] was more than 100 nM in each case.
